From US20100298141A1, “SUBSTITUTED PYRIDINE N-OXIDE HERBICIDES” (E. I. DU PONT DE NEMOURS AND COMPANY, priority 2007, published 2010)

Key:
lambsquarters = assay: Test C pre-/postemergence test; type: in vivo, Chenopodium album; settings: 62 g ai/ha, Preemergence; scale 0 to 100
Method in brief: (§1)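 Test chemicals were formulated with surfactant in a non-phytotoxic solvent and sprayed both on freshly planted seeds (preemergence) and on 1- to 4-leaf plants of 2–18 cm (postemergence). Flooded-paddy pots received compound directly into 3 cm of standing water, maintained for the test.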

umbrella sedge = assay: Test C flooded paddy test; type: in vivo, Cyperus difformis; settings: Flood
Method in brief: (§2)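 Compound was added to standing water 3 cm above soil, flood maintained, and plants held in a greenhouse before visual scoring against controls at 13 to 15 days.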

Surinam grass = assay: Test C pre-/postemergence test; type: in vivo, Brachiaria decumbens; settings: Preemergence
Method in brief: as §1

wheat [1] = assay: Test A pre-/postemergence greenhouse test; type: in vivo, Triticum aestivum; settings: for Wheat plant response rating: 0 to 100 scale
Method in brief: (§3)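 Greenhouse herbicide screen, pre- and postemergence in parallel. Soil: loam plus sand. Formulation: non-phytotoxic solvent mix with surfactant. Postemergence stage: one to two leaves, 2–10 cm height. Evaluation: visual injury, compared with untreated controls, about 10 days after treatment.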

rice = assay: Test C flooded paddy test; type: in vivo, Oryza sativa; settings: Flood
Method in brief: as §2

[2] = tested on: common (oilseed) sunflower; assay: Test C pre-/postemergence test; type: in vivo, Helianthus annuus; settings: Preemergence
Method in brief: as §1

eastern black nightshade = assay: Test C pre-/postemergence test; type: in vivo, Solanum ptycanthum; settings: Preemergence
Method in brief: as §1

bermudagrass = assay: Test C pre-/postemergence test; type: in vivo, Cynodon dactylon
Method in brief: as §1

Goosegrass = assay: Test C pre-/postemergence test; type: in vivo, Eleusin indica; settings: Preemergence
Method in brief: as §1

wheat [3] = assay: Test C pre-/postemergence test; type: in vivo, Triticum aestivum; settings: Preemergence
Method in brief: as §1

corn = assay: Test A pre-/postemergence greenhouse test; type: in vivo, Zea mays; settings: for Corn plant response rating: 0 to 100 scale
Method in brief: as §3

giant foxtail = assay: Test A pre-/postemergence greenhouse test; type: in vivo, Setaria faberi; settings: for Foxtail, Giant plant response rating: 0 to 100 scale
Method in brief: as §3

morningglory = assay: Test A pre-/postemergence greenhouse test; type: in vivo, Ipomoea spp.; settings: for Morningglory plant response rating: 0 to 100 scale
Method in brief: as §3

barnyardgrass = assay: Test A pre-/postemergence greenhouse test; type: in vivo, Echinochloa crus-galli; settings: for Barnyardgrass plant response rating: 0 to 100 scale
Method in brief: as §3

crabgrass = assay: Test C pre-/postemergence test; type: in vivo, Digitaria sanguinalis; settings: Preemergence
Method in brief: as §1

pigweed = assay: Test C pre-/postemergence test; type: in vivo, Amaranthus retroflexus; settings: Preemergence
Method in brief: as §1

redroot pigweed = assay: Test A pre-/postemergence greenhouse test; type: in vivo, Amaranthus retroflexus; settings: for Pigweed plant response rating: 0 to 100 scale
Method in brief: as §3

[4] = 31 g ai/ha, scale 0 to 100 (0 no effect, 100 complete control)
[5] = 62 g ai/ha, scale 0 to 100, 0 no effect, 100 complete control, 13 to 15 days
[6] = 125 g ai/ha, scale 0 to 100, 0 no effect, 100 complete control, 13 to 15 days
[7] = Postemergence, 125 g ai/ha, 0 is no effect, 100 is complete control
[8] = Postemergence, 500 g ai/ha, 0 is no effect, 100 is complete control
[9] = Preemergence, 125 g ai/ha, 0 no effect, 100 complete control
[10] = Preemergence, 500 g ai/ha, 0 to 100 scale where 0 is no effect and 100 is complete control

Cn1nc(C(F)(F)F)c(CS(=O)(=O)c2cccc[n+]2[O-])c1OCC(F)(F)F [Compound 29]
20: Plant response rating, Wheat (wheat [3]; [4])
60: Wheat plant response rating (wheat [1]; [8]) | Wheat plant response rating (wheat [1]; [9]) | Sunflower plant response rating ([2]; 62 g ai/ha, scale 0 to 100) | Corn plant response rating (corn; [8])
30: Wheat plant response rating (wheat [3]; 62 g ai/ha, scale 0 to 100) | Corn plant response rating (corn; [7]) | Morningglory plant response rating (morningglory; [7])
90: Plant response rating, Sedge, Umbrella (umbrella sedge; [5]) | Plant response rating, Sedge, Umbrella (umbrella sedge; [6]) | Plant response rating, Wheat (wheat [1]; [10]) | Foxtail, Giant plant response rating (giant foxtail; [8]) | Barnyardgrass plant response rating (barnyardgrass; [8])
50: Wheat plant response rating (wheat [1]; [7])
40: Plant response rating, Rice (rice; [6])
95: Plant response rating, Sedge, Umbrella (umbrella sedge; 250 g ai/ha, scale 0 to 100, 0 no effect, 100 complete control, 13 to 15 days)
80: Plant response rating, Sedge, Umbrella (umbrella sedge; [4]) | Plant response rating, Rice (rice; 250 g ai/ha, scale 0 to 100 (0 no effect, 100 complete control)) | Foxtail, Giant plant response rating (giant foxtail; [7]) | Morningglory plant response rating (morningglory; [8]) | Plant response rating, Morningglory (morningglory; [10]) | Barnyardgrass plant response rating (barnyardgrass; [7]) | Pigweed plant response rating (redroot pigweed; [8])
70: Plant response rating, Corn (corn; [10]) | Morningglory plant response rating (morningglory; [9]) | Pigweed plant response rating (redroot pigweed; [7])
75: Surinam Grass plant response rating (Surinam grass; 62 g ai/ha, scale 0 to 100) | Plant response rating, Surinam Grass (Surinam grass; [4]) | Plant response rating, Nightshade (eastern black nightshade; [4])
98: Nightshade plant response rating (eastern black nightshade; 62 g ai/ha, scale 0 to 100)
0: Lambsquarters plant response rating (lambsquarters) | Plant response rating, Rice (rice; [4]) | Plant response rating, Rice (rice; [5]) | Plant response rating, Sunflower [2, 4] | Corn plant response rating (corn; [9])
100: Bermudagrass plant response rating (bermudagrass; 62 g ai/ha, Preemergence, scale 0 to 100 (0 no effect, 100 complete control)) | Plant response rating, Bermudagrass (bermudagrass; Preemergence, 31 g ai/ha, scale 0 to 100 (0 no effect, 100 complete control)) | Plant response rating (0 to 100), Bermudagrass (bermudagrass; Preemergence, 250 g ai/ha) | Bermudagrass plant response rating (bermudagrass; preemergence, 125 g ai/ha, scale 0 (no effect) to 100 (complete control)) | Goosegrass plant response rating (Goosegrass; 62 g ai/ha, scale 0 to 100) | Plant response rating, Goosegrass (Goosegrass; [4]) | Plant response rating (0 to 100), Goosegrass (Goosegrass; 250 g ai/ha) | Foxtail, Giant plant response rating (giant foxtail; [9]) | Plant response rating, Foxtail, Giant (giant foxtail; [10]) | Barnyardgrass plant response rating (barnyardgrass; [9]) | Plant response rating, Barnyardgrass (barnyardgrass; [10]) | Crabgrass, Large plant response rating (crabgrass; 62 g ai/ha, scale 0 to 100) | Plant response rating, Crabgrass, Large (crabgrass; [4]) | Plant response rating (0 to 100), Crabgrass, Large (crabgrass; 250 g ai/ha) | Pigweed plant response rating (pigweed; 62 g ai/ha, scale 0 to 100) | Plant response rating, Pigweed (pigweed; [4]) | Pigweed plant response rating (redroot pigweed; [9]) | Plant response rating, Pigweed (redroot pigweed; [10])
